Measurements reported in patent publication US11633418B2, “Deoxyribonucleoside monophospate bypass therapy for mitochondrial DNA depletion syndrome” (priority 2015, dated 2023).

Assay: Dissolution in liquid (water, formula or milk)
Type: physicochemical
Experimental: The preferred form of the administration of the deoxyribonucleoside monophosphates is in the form of disodium salts of the deoxyribonucleoside monophosphates. […] Once administered, the deoxyribonucleoside monophosphates salts convert to the free acid form. By way of example, for some of the oral administration to human patients, 2000 mg each of dTMP Na2 and dCMP Na2 were dissolved in 25 ml of water.

Dissolution in liquid (such as water, formula or milk)	SMILES
easily dissolved	Nc1ccn([C@H]2C[C@H](O)[C@@H](COP(=O)([O-])[O-])O2)c(=O)n1.[Na+].[Na+] [dCMP Na2]
easily dissolved	Cc1cn([C@H]2C[C@H](O)[C@@H](COP(=O)([O-])[O-])O2)c(=O)[nH]c1=O.[Na+].[Na+] [dTMP Na2]
